{
  "source": "patent US20250051356A1",
  "about": "“RIFABUTIN ANALOGS FOR THE TREATMENT OF DISEASE” (priority 2021, published 2025)",
  "format_in_all_cases": "cell-based",
  "key": {"[1]": {"test_system": "Enterococcus faecalis (strain ATCC 51575)", "test": "MIC against E. faecalis", "conditions": "CAMHB"}, "[2]": {"test_system": "Streptococcus pneumoniae (strain ATCC 49619)", "test": "MIC against S. pneumoniae", "conditions": "CAMHB + 5% laked horse blood"}, "[3]": {"test_system": "M. abscessus subsp. abscessus ATCC 19977", "test": "MIC against M. abscessus in Middlebrook 7H9 + ADC", "conditions": "7H9 + ADC"}, "[4]": {"test_system": "M. smegmatis (strain ATCC 700084)", "test": "MIC against M. smegmatis (90% growth inhibition, BacTiter-Glo)", "conditions": "7H9 + ADC, 20 hours"}, "[5]": {"test_system": "A. baumannii Arr-2", "test": "microbe, parasite or virus in culture", "conditions": "RPMI + FCS"}, "[6]": {"test_system": "Staphylococcus epidermidis (strain ATCC 12228)", "test": "MIC against S. epidermidis", "conditions": "CAMHB"}, "[7]": {"test_system": "M. abscessus subsp. abscessus CCUG 71382", "test": "MIC against M. abscessus isolate in 7H9 + ADC", "conditions": "7H9 + ADC"}, "[8]": {"test_system": "M. abscessus subsp. bolletii CCUG 50184", "test": "MIC against M. abscessus isolate in 7H9 + ADC", "conditions": "7H9 + ADC"}, "[9]": {"test_system": "A. baumannii wild type (WT)", "test": "MIC against A. baumannii isolate in RPMI + FCS", "conditions": "RPMI + FCS"}, "[10]": {"test_system": "Streptococcus pyogenes (strain IHMA 1117021)", "test": "MIC against S. pyogenes", "conditions": "CAMHB + 5% laked horse blood"}, "[11]": {"test_system": "Enterococcus faecium (strain NCTC 12204)", "test": "MIC against E. faecium", "conditions": "strain NCTC 12204; CAMHB"}, "[12]": {"test_system": "M. abscessus subsp. abscessus CCUG 71636", "test": "MIC against M. abscessus isolate in 7H9 + ADC", "conditions": "7H9 + ADC"}, "[13]": {"test_system": "A. baumannii RpoB H535L mutant", "test": "microbe, parasite or virus in culture", "conditions": "RPMI + FCS"}, "[14]": {"test_system": "Hemophilus influenzae (strain ATCC 49247)", "test": "MIC against H. influenzae", "conditions": "Hemophilus test medium broth"}, "[15]": {"test_system": "Mycobacterium tuberculosis (H37Rv, strain ATCC 27294)"}, "[16]": {"test_system": "M. abscessus subsp. massiliense CCUG 48898", "test": "MIC against M. abscessus isolate in 7H9 + ADC", "conditions": "7H9 + ADC"}, "[17]": {"test_system": "A. baumannii RpoB H535C mutant", "test": "microbe, parasite or virus in culture", "conditions": "RPMI + FCS"}, "[18]": {"test_system": "A. baumannii RpoB H535Q mutant", "test": "microbe, parasite or virus in culture", "conditions": "RPMI + FCS"}},
  "data": [
    {"smiles": "CO[C@H]1/C=C/O[C@@]2(C)Oc3c(C)c(O)c4c(c3C2=O)C(=O)C(N2CCOCC2)=C(NC(=O)/C(C)=C\\C=C\\[C@H](C)[C@H](O)[C@@H](C)[C@@H](O)[C@@H](C)[C@H](OC(=O)CC(=O)OCC2CCCN(C)C2)[C@@H]1C)C4=O", "note": "(stereo partly drawn) [CGP 4832]", "values": [
      {"measurement": "MIC E. faecalis", "setting": "[1]", "result": 2000, "unit": "µg/mL"},
      {"measurement": "MIC S. pneumoniae", "setting": "[2]", "result": "≤2", "unit": "µg/mL"},
      {"measurement": "M. abscessus MIC in 7H9 + ADC, abscessus ATCC 19977", "setting": "[3]", "result": 4, "unit": "µg/mL"},
      {"measurement": "MIC M. smegmatis", "setting": "[4]", "result": 30, "unit": "µg/mL"},
      {"measurement": "A. baumannii MIC in RPMI + FCS, Arr-2", "setting": "[5]", "result": 4, "unit": "µg/mL"},
      {"measurement": "MIC S. epidermidis", "setting": "[6]", "result": "≤2", "unit": "µg/mL"},
      {"measurement": "M. abscessus MIC in 7H9 + ADC, abscessus CCUG 71382", "setting": "[7]", "result": 8, "unit": "µg/mL"},
      {"measurement": "M. abscessus MIC in 7H9 + ADC, bolletii CCUG 50184", "setting": "[8]", "result": 8, "unit": "µg/mL"},
      {"measurement": "A. baumannii MIC in RPMI + FCS, WT", "setting": "[9]", "result": 8, "unit": "µg/mL"},
      {"measurement": "MIC S. pyogenes", "setting": "[10]", "result": 8, "unit": "µg/mL"},
      {"measurement": "MIC E. faecium", "setting": "[11]", "result": 2000, "unit": "µg/mL"},
      {"measurement": "M. abscessus MIC in 7H9 + ADC, abscessus CCUG 71636", "setting": "[12]", "result": 2, "unit": "µg/mL"},
      {"measurement": "A. baumannii MIC in RPMI + FCS, RpoB H535L", "setting": "[13]", "result": ">32", "unit": "µg/mL"},
      {"measurement": "MIC H. influenzae", "setting": "[14]", "result": 500, "unit": "µg/mL"},
      {"measurement": "MIC M. tuberculosis", "setting": "[15]", "result": 3.6, "unit": "µg/mL"},
      {"measurement": "M. abscessus MIC in 7H9 + ADC, massiliense CCUG 48898", "setting": "[16]", "result": 4, "unit": "µg/mL"},
      {"measurement": "A. baumannii MIC in RPMI + FCS, RpoB H535C", "setting": "[17]", "result": ">32", "unit": "µg/mL"},
      {"measurement": "A. baumannii MIC in RPMI + FCS, RpoB H535Q", "setting": "[18]", "result": ">32", "unit": "µg/mL"}
    ]}
  ]
}
